Residues, ends and D or L forms follow the SMILES beside them. *: point of attachment. 5FAM = O=C1OC2(c3ccc(O)cc3Oc3cc(O)ccc32)c2ccc(C(=O)*)cc21
Tests used:
sciatic nerve [1] = assay: Histology: localization of binding in nerves of thy1-YFP transgenic mice; format: in vivo; conditions: mouse, in vivo
From the text: To evaluate the localization of SEQ ID NO:4 binding in nerves, we treated thy1-YFP transgenic mice whose axons are genetically encoded with YFP under a neuron specific promoter (Feng et al, Imaging neuronal subsets in transgenic mice expressing multiple spectral variants of GFP. Neuron, 2000) with SEQ ID NO:31. […] These deeper nerve structures were not easily seen either with brightfield (FIG. 5A, insert) or YFP (FIG. 5B, insert) imaging. To evaluate the localization of SEQ ID NO:4 binding on a cellular level, we imaged cryosections (3-5 μm) of nerves and attached muscles from thy1-YFP animals treated with SEQ ID NO:31.

[2] = Generalized toxicity: activity, behavior and weight gain; format: in vivo, mice; conditions: single intravenous injection of 15-5,000 nmoles, up to 8 weeks of monitoring
Description: To evaluate generalized toxicity following peptide administration, the generalized activity, behavior and weight gain of mice after a single intravenous injection of 15-5,000 nmoles of SEQ ID NO:25 was studied.
Female 8 week-old SKH1 mice (average weight 25 g) were treated with varying amounts of SEQ ID NO:25 ranging from 15-5,000 nmoles. Generalized activity, behavior and weight gain were evaluated following single intravenous injection of 15-5,000 nmoles of […] on a daily basis for 3 clays following injection. Thereafter, the mice were monitored three times per week for 8 weeks.

sciatic nerves [3] = assay: In vivo nerve labeling with fluorescently labeled peptides (nerve versus adjacent non-nerve tissue); design: species or system mice; conditions: for nerve to muscle contrast: FAM-labeled peptides intravenously
Description: To test the nerve binding affinity of each of the isolated peptide sequences in vivo, carboxyfluorescein (FAM)-labeled peptides were injected intravenously into living mice. Following a wash-out period, the contrast between nerve and muscle binding of the labeled peptides was evaluated.
Wild-type albino C57BL6 (Jackson Laboratory) or SKH1 (Charles River Laboratories) mice were treated intravenously with 150 nmoles of fluorescently labeled SEQ ID NO:4 via tail vein injection. Following a 2-3 hour wash-out period for SEQ ID NO:25 or 5-6 hours for SEQ ID NO:31, mice were anesthetized with ketamine and midazolam (80 mg/kg intraperitoneally), a skin incision was made over the dorsal surface of the hind, legs and the sciatic nerves exposed bilaterally. […] Nerves and adjacent non-nerve tissue was delineated with Image J and relative fluorescence was measured. Following background subtraction using dark current measurements and measurements of a standard, the ratios of peptide binding to nerve versus adjacent non-nerve tissue were calculated.

sciatic nerves [4] = assay: as above; design: species or system mice
[5] = Peptide biodistribution and metabolism (organ fluorescence, LC-MS and MALDI of urine); format: in vivo, mice
Description: (§1) To evaluate the biodistribution of the peptide following systemic administration, organs were harvested from mice treated with SEQ ID NO:4 and fluorescence uptake was evaluated. […] To evaluate the metabolism of the peptide as it passed through the renal system, liquid chromatography-mass spectrometry (LC-MS, Agilent) tracing was used to compare urine obtained from mice injected with SEQ ID NO:25 or SEQ ID NO:31 intravenously versus urine from normal mice spiked with the native SEQ ID NO:25 or SEQ ID NO:31. […] Next, matrix-assisted. laser desorption/ionization (MALDI) was used to evaluate the nature of the modification to the peptide as it was metabolized.
as §1, with “NO:25 and” for “NO:25 or”, “ID NO:3” for “ID NO:31”, “ID NO:25.” for “ID NO:25 or SEQ ID NO:31.”, “Next, matrix-assisted” for “Next, matrix-assisted.”

dissected nerve tissue = assay: In vitro nerve binding: dissected nerve tissue incubated with peptide; design: species or system mice; conditions: 100 nM peptide, one hour incubation
sciatic nerves [6] = assay: Dose response of peptide binding (nerve to muscle contrast ratio); format: in vivo, mice; conditions: 5,000 nmoles, at 2 hours
Description: To determine the dose response of peptide binding, the nerve to muscle contrast ratio was measured as a function of the amount of peptide administered (FIG. 4D).
Female 8 week-old SKH1 mice (average weight 25 g) were treated with varying amounts of SEQ ID NO:25 ranging from […]. After a 2 hour washout period, mice were sacrificed and sciatic nerves exposed. Nerves and adjacent non-nerve tissue were delineated with Image 3 and relative fluorescence was measured. Quantification of fluorescence was then performed following subtraction of dark current and normalizing to a standard. For the mice injected with 5,000 nmoles of SEQ ID NO:4, it was noted that background fluorescence was still very high at 2 hours, making the contrast ratio low even though the absolute nerve fluorescence was high. For these mice, the skin incisions were repaired and the mice were allowed to awaken from anesthesia, then at 6 hours following initial SEQ ID NO:4 administration, the mice were sacrificed and the sciatic nerves exposed and analyzed as above.

sciatic nerve [7] = assay: Effect of nerve injury (crush, devascularization) on labeling; format: in vivo, mice
Description: The ability of peptides to label peripheral nerves following nerve crush injury was evaluated in mice using SEQ ID NO:25. […] (Occasionally, nerve labeling immediately at the site of injury was slightly diminished compared to nerve labeling several centimeters away from the site of injury (FIG. 6D), but this observation was highly variable (FIGS. 6B,F) and not statistically significant (FIG. 6I)).
Wild type mice were anesthetized and the left sciatic nerve exposed and crushed with microforceps for 3-5 seconds. Muscular contractions during the crush after immediately afterwards were monitored to ensure uniformity of the injury. The skin incision was then closed and mice returned to their cages to recover. At varying times after crush injury, intravenous SEQ ID NO:25 (150 nmoles) was administered. Two to three hours after intravenous SEQ ID NO:25 treatment, the mice were anesthetized, bilateral sciatic nerves exposed and quantitative fluorescence microscopy was used to measure nerve fluorescence. Nerve and adjacent muscle fluorescence were measured using Image J software by measuring standardized boxed regions. Crushed and contralateral control nerve fluorescence were compared for each animal.

sciatic nerve conduction = conditions: mouse, in vivo
Description: Maximal compound muscle action potential amplitude (CMAP) and nerve conduction latency were measured as described in Osuchowski et al, Noninvasive model of sciatic nerve conduction in healthy and septic mice: reliability and normative data, Muscle Nerve, 2009), Briefly, control female 8 week-old SKH1 mice and mice treated with SEQ ID NO:25 were anesthetized with ketamine-midazolam and placed in a prone position. CMAP potentials were evoked (Grass stimulator) with stimulating electrode (Medtronics) placed 2 mm lateral to the midline. The recording electrode was an ear-clip electrode (Life-tech.com) placed on the digits of the hind foot and the reference electrode was placed on the heel of the foot. Maximal CMAPs were generated by gradually increasing the stimulation (5-10V, 1 pulse per second, paired, 0.5-2 sec duration) until a maximal, artifact free tracing was obtained. The CMAP traces were captured on a digital oscilloscope (Tektronic). Nerve conduction latency was measured from the beginning of the stimulation to the start of the upslope. CMAP amplitude was measured from the start of the upslope to the peak.

[8] = system: sciatic nerves and surrounding non-nerve tissue; format: in vivo, mice
From the text: To evaluate the time course of peptide binding to nerve tissue, sciatic nerves and surrounding non-nerve tissue in living mice were imaged before and after intravenous administration of SEQ ID NO:25, Prior to administration of SEQ ID NO: 25 (FIG. 3A), there was little contrast of the nerve (arrowheads) in relation to surrounding non-nerve tissue. Within seconds following intravenous administration of SEQ ID NO:25 (FIG. 3B), the fluorescent injectate could be seen leaking from capillaries (arrows), including capillaries associated with the sciatic nerves (insert). […] Useful contrast between nerve and surrounding muscle begins to develop by 2-3 hours after intravenous injection (FIG. 3E) and lasts several hours (FIG. 3F). […] Serum half-life was calculated at ˜10 minutes.
Female 8 week-old SKH1 mice were anesthetized with ketamine and midazolam and a skin incision was made over the dorsal surface of the hind legs and the sciatic nerves exposed. A preinjection image was taken a dissecting microscope (Lumar Zeiss) and a monochrome camera (Coolsnap). The mice were treated intravenously with […] of SEQ ID NO:25 via, tail vein injection. Sequential fluorescence imaging was then performed as described above: excitation 470/40 nm, emission 525/50 nm, exposure 15 milliseconds-5 seconds. Nerves and adjacent non-nerve tissue were delineated with Image J and relative fluorescence was measured. Quantification of fluorescence was then performed following subtraction of dark current and normalizing to a standard.

[9] = system: human recurrent laryngeal nerve; assay: Human nerve labeling: resected recurrent laryngeal nerves and adjacent muscle incubated with peptide; format: binding
Description: To evaluate whether or not SEQ ID NO:25 could selectively bind human nerves as compared to non-nerve tissue, freshly resected recurrent laryngeal nerves and adjacent muscle obtained from patients undergoing total laryngectomy for laryngeal cancer were incubated with SEQ ID NO:25. […] This binding pattern is similar to the binding pattern observed in mice.
To evaluate whether or not SEQ ID NO:25 could selectively bind human nerves as compared to non-nerve tissue, freshly resected recurrent laryngeal nerves and adjacent muscle obtained from patients undergoing total laryngectomy for laryngeal cancer were incubated with SEQ ID NO:25 at […] for 15 minutes and washed in saline for 15 minutes each. The nerve and muscle segments were then placed on a black non-fluorescent plate and imaged (Maestro, CRI). The nerve segments were then embedded in Tissue-Tek®, frozen and cryosectioned. 7-10 μm cryosections were then. imaged with standard fluorescence microscopy. Adjacent sections were stained with hematoxylin and eosin (H&E) and imaged.

MBP = system: MBP
Description: To test the nerve binding affinity of each of the isolated peptide sequences in vitro, dissected nerve tissue was removed from mice and incubated for one hour with 100 nM of each peptide, including a control peptide made up of amino acids that were contained within the various phages selected and sequenced, but in a mixed-up order and designed without repeating any single amino acid except for glycine (which was added to the C-terminus as a flexible linker).

Compound: NTQTLAKAPEHT (peptide that specifically binds to a neuron, nerve, or component of either) [SEQ ID NO:4]
- colocalization of labeling with myelin or axons (sciatic nerve [1]): does not appear to colocalize
- colocalization of labeling with myelin or axons (sciatic nerve [1]; listed as SEQ ID NO: 4): does not colocalize
- generalized activity, behavior and weight gain versus uninjected/control mice [2]: similar
- nerve fluorescence relative to adjacent non-neural tissue (sciatic nerves [3]; FAM-labeled peptide intravenously, living mice, exposed sciatic nerves, after wash-out): 4 fold
- nerve to muscle contrast (sciatic nerves [3]; living mice, after wash-out): best nerve to non-nerve contrast
- labeling of nerves in the central nervous system (CNS) (sciatic nerves [4]; mouse, in vivo): no evidence of labeling
- biodistribution following systemic administration (organ fluorescence uptake) ([5]; mouse, in vivo): accumulated in the kidney and was excreted into the urine
- uptake/binding to dissected nerve tissue compared to no peptide or control peptide (dissected nerve tissue): two-fold increase over control to no difference from control
- nerve to muscle contrast ratio (sciatic nerves [6]): low
- nerve labeling after injury (sciatic nerve [7]; 3 days following injury): diminished
- nerve labeling compared to contralateral control nerve (sciatic nerve [7]; 7 days after crush injury): recovers
- nerve fluorescence as a function of distance from crush site (sciatic nerve [7]; mouse, in vivo): does not significantly diminish
- shape of the CMAP curve versus control animals (sciatic nerve conduction): similar

Compound: CC(=O)N[C@@H](CO)C(=O)N[C@@H](Cc1c[nH]cn1)C(=O)N[C@@H](CO)C(=O)N[C@@H](CC(N)=O)C(=O)N[C@H](C(=O)N[C@@H](CCC(N)=O)C(=O)N[C@H](C(=O)N[C@@H](CC(C)C)C(=O)N[C@@H](C)C(=O)N[C@@H](CCCCN)C(=O)N[C@@H](C)C(=O)N1CCC[C@H]1C(=O)N[C@@H](CCC(=O)O)C(=O)N[C@@H](Cc1c[nH]cn1)C(=O)N[C@H](C(=O)NCC(=O)N[C@@H](CCCCNC(=O)c1ccc2c(c1)C(=O)OC21c2ccc(O)cc2Oc2cc(O)ccc21)C(N)=O)[C@@H](C)O)[C@@H](C)O)[C@@H](C)O [SEQ ID NO:25, acetyl-SHSNTQTLAKAPEHTGK(5,6FAM)-amide] (Ac-SHSNTQTLAKAPEHTGK(5FAM)-NH2)
- time at which useful contrast between nerve and surrounding muscle begins to develop ([8]; after intravenous injection): 2 to 3 h
- nerve to muscle contrast ratio ([8]; by 4-5 hours post-injection): 8-10 fold
- visible contrast between nerve and muscle ([8]; by 24 hrs post-injection): all visible contrast between nerve and muscle had disappeared
- time of highest muscle fluorescence ([8]; mouse, in vivo, iv): highest immediately following intravenous administration
- time of peak nerve fluorescence post-administration ([8]; mouse, in vivo, iv): around 10 minutes
- generalized activity, behavior and weight gain versus uninjected/control mice [2]: did not have any apparent changes
- Nerve contrast (sciatic nerves [3]; derivatives of peptide SEQ ID NO: 4): High
- systemic survey of nerves labeled (sciatic nerves [4]; facial nerve, brachial plexus, sciatic nerve): all nerves were brightly labeled
- binding to human nerves as compared to adjacent muscle ([9]; 50 μM for 15 minutes): Selective binding
- pattern of nerve binding in human tissue ([9]; tissue sections): connective tissue surrounding the nerve, i.e. epineurium, perineurium, and endoneurium
- native peptide detectable in urine of intravenously injected mice ([5]; LC-MS): none
- only fluorescently labeled entity identified in urine ([5]; MALDI): lysine-FAM
- nerve labeling compared to contralateral control nerve (sciatic nerve [7]; 1 day after crush injury): intact
- decrease of nerve labeling compared to contralateral control nerve (sciatic nerve [7]; 3 days after crush injury): 40%
- nerve labeling compared to contralateral control nerve (sciatic nerve [7]; 7 days after crush injury): returned to control levels
- nerve fluorescence compared to contralateral control side (sciatic nerve [7]; immediately following nerve devascularization): highly diminished

Compound: TYTDWLNFWAWP (peptide that specifically binds to a neuron, nerve, or component of either) [SEQ ID NO:2]
- nerve to muscle contrast (sciatic nerves [3]; living mice, after wash-out): little significant nerve-to muscle contrast
- increase in binding to MBP crosslinked beads compared to control beads (with no MBP) (MBP): 10 fold
- uptake/binding to dissected nerve tissue compared to no peptide or control peptide (dissected nerve tissue): little increase
